Reference: patent US20230082968A1, “EXOGENOUS NITRIC OXIDE FOR IMPROVED SUSCEPTIBILITY AND LOWERED ANTIBIOTIC RESISTANCE IN RESISTANT RESPIRATORY BACTERIA” (The University of North Carolina at Chapel Hill, priority 2020, published 2023)
≈ marks a conversion by molar mass, not a printed value. Entries after “also recorded” stand apart in the source; their conditions may differ.

How the values were obtained:
PAK [1] = experiment: Nitric oxide pretreatment with planktonic bacteria; format: cell-based, Pseudomonas aeruginosa; details: NO-pretreatment 25% MIC 4 h
Procedure: After exposure, wells were serially diluted in sterile MilliQ water and spiral plated on TSA. Viability was assessed by colony counting.

[2] = system: P. aeruginosa strain K (PAK); experiment: Checkerboard assay of antibiotic combinations with COS/NO; format: cell-based, Pseudomonas aeruginosa; details: antibiotic in combination with COS/NO, 24 h
Procedure: Frozen stocks of bacteria were reconstituted in TSB (3 mL) and cultured overnight. The overnight cultures of bacteria (3 mL) were inoculated into fresh TSB (30 mL) and grown to 10^8 CFU/mL. […] Inhibition was assessed with the resazurin assay and the minimum inhibitory concentration (MIC) was defined as the lowest concentration of antibacterial agent required to prevent the reduction of resazurin (i.e., color change from blue to pink).
Mol. Pharm. 7, 2289-2296 (2010)]. Briefly, bacteria at a final concentration of 10^6 CFU/mL were incubated with an array of antimicrobial combinations in TSB for 24 h at 37° C. The highest concentration for each antimicrobial tested was 2 × MIC. […] The fractional […] concentration index (ΣFIC) was calculated using Equation 1, reported by Elion et al. [Elion, G. B., Singer, S. & Hitchings, G. H. Antagonists of Nucleic Acid Derivatives: VIII. Synergism in combinations of biochemically related antimetabolites. […] Checkerboard assays were conducted in at least duplicate for each bacterial strain and for each drug combination.
Characterization of the combinations was performed using the following criteria based on ΣFIC values: < 0.25 is highly synergistic; ≤ 0.5 is synergistic; ≤ 1 is additive; ≤ 4 is indifferent; > 4 is antagonistic.

ATCC MRSA = experiment: Serial passaging resistance assay; format: cell-based, Methicillin-resistant S. aureus
Procedure: (§1) Bacteria at a final concentration of 10^6 CFU/mL in TSB were incubated with serial dilutions of COS/NO and/or tobramycin for 24 h. Growth was assessed by measuring absorbance at 600 nm. The wells that had the highest concentration of test agent and an OD600 corresponding to more than 10^8 CFU/mL were diluted to 10^6 cfu/mL in TSB and incubated with fresh solutions of COS/NO or tobramycin for 24 h. A single passage was defined as one exposure, incubation, and subsequent dilution. Bacteria were passaged for up to 70 days.

P. aeruginosa biofilms = experiment: Biofilm pretreatment with nitric oxide, all tested biofilms; format: cell-based; details: P. aeruginosa biofilms, COS/NO at 25% MBEC
Procedure: Bacteria were cultured to a concentration of 10^8 CFU/mL in TSB and diluted to 10^6 CFU/mL in 200 µL TSB in a 96 well plate. Plates were incubated with shaking for 3 days until a non-surface attached viscous aggregate formed that was easily separated from growth medium. Biofilms (100 µL) were removed, gently injected into PBS (200 µL) to remove loosely adhered planktonic cells, and added to a sterile 96 well plate. To the wells, PBS or test agent dissolved in PBS (100 µL) was added and incubated with shaking for 24 h. The biofilm (100 µL) was removed from the well plate, added to 900 µL sterile MilliQ water, and disrupted with pipetting and vortexing. Disrupted biofilms were serially diluted and spiral plated on TSA. Viability was assessed with colony counting. The minimum biofilm eradication concentration (MBEC) was defined as the lowest concentration of test agent required to reduce viability by 5-log (i.e., 10^8 to 10^3 CFU/mL).
The biofilm was then removed from its 96 well plate, added to a new 96 well plate containing tobramycin dissolved in PBS (100 µL), and incubated for 20 h. The biofilm was disrupted in 900 µL sterile MilliQ water with pipetting and vortexing, serially diluted, and spiral plated on TSA. Viability was assessed with colony counting.

[3] = system: PAK, ATCC MRSA, ATCC BCC, and AR 542; experiment: NPN uptake assay (outer membrane permeability); format: cell-based; details: exposure to COS/NO, FIG. 1
Procedure: The outer membrane permeability of PAK, ATCC MRSA, ATCC BCC, and AR 542 was assessed with an NPN assay modified from Helander and coworkers [Helander, I. M. & Mattila-Sandholm, T. Fluorometric assessment of Gram-negative bacterial permeabilization. J. Appl. Microbiol. 88, 213-219 (2000)]. Briefly, a stock 4560 µM NPN in acetone solution was prepared fresh each day and diluted to 456 µM in PBS pH 7.4. Bacteria were cultured to a concentration of 10^8 CFU/mL in TSB, collected via centrifugation (5,000 × g for 5 min), and resuspended in PBS. Bacteria were added to COS/NO or DMSO in 1-dram vials and incubated at 37° C. with shaking. After 10 min of incubation, a portion of the exposure solution (196 µL) was removed and added to a black well plate, and 4 µL NPN (456 µM in PBS) was added. Fluorescence was immediately measured at excitation and emission wavelengths of 350 nm and 460 nm, respectively. The background NPN fluorescence in buffer was subtracted.

PAK [4] = experiment: Serial passaging resistance assay; format: cell-based, Pseudomonas aeruginosa
Procedure: as §1

| Compound | Classification (ΣFIC) [2] | ΣFIC (median fractional inhibitory concentration index) [2] | Classification (PAK [1]; antibiotic 2 µg/mL) | Log Difference in bacteria viability with vs without NO-pretreatment (PAK [1]; antibiotic 2 µg/mL) [log] | also measured |
| --- | --- | --- | --- | --- | --- |
| Colistin | Synergistic | 0.5 |  |  | Log Difference in bacteria viability with vs without NO-pretreatment (PAK [1]; antibiotic […]): 5.13 log |
| [N]=O [NO, nitric oxide] |  |  |  |  | MICn (ATCC MRSA; ATCC MRSA, after n = 30 passages): 384 µg/mL; MIC (ATCC MRSA; Staphylococcus aureus, MRSA, read-out: MIC0): 384 mg/L (≈ 12.8 mM); biofilm viability after NO-pretreatment alone (P. aeruginosa biofilms): does not significantly affect; also recorded: does not significantly reduce; uptake of the hydrophobic fluorophore NPN and crystal violet dye (cell permeability) [3]: increased uptake; MICn (PAK [4]; PAK, after n = 70 passages): 96 µg/mL; MIC (PAK [4]; Pseudomonas aeruginosa, read-out: MIC0): 96 mg/L (≈ 3.2 mM) |
| CC(C)(O/N=C(\C(=O)N[C@@H]1C(=O)N2C(C(=O)[O-])=C(C[n+]3ccccc3)CS[C@H]12)c1csc(N)n1)C(=O)O [Ceftazidime] | Additive | 1 |  |  |  |
| C[C@@H](O)[C@H]1C(=O)N2C(C(=O)O)=C(S[C@@H]3CN[C@H](C(=O)N(C)C)C3)[C@H](C)[C@H]12 [Meropenem] | Synergistic | 0.5 | Synergistic | 3.22 |  |
| C[C@H]1[C@H](NC(=O)/C(=N\OC(C)(C)C(=O)O)c2csc(N)n2)C(=O)N1S(=O)(=O)O [Aztreonam] | Additive | 0.75 | Synergistic | 5.11 |  |
